These results are taken from patent publication US9393251B2, “Compositions and methods for treating severe thrombocytopenia related disease” (priority 2013, dated 2016).

Each structure is given as a SMILES string.

Data set [1] relates to rheumatoid arthritis, systemic lupus erythematosus and Sjögren's syndrome. The data set is described as follows: Patients with rheumatoid arthritis, systemic lupus erythematosus and Sjögren's syndrome treated with the combination (Example 4). The data set is classed as in vivo, human. Conditions: after Vitamin D deficiency corrected with high dose Vitamin D replacement. The method, then: Low levels of vitamin D have been implicated in a number of autoimmune disorders, such as rheumatoid arthritis, systemic lupus erythematosus, and Sjögren's syndrome. Patients with rheumatoid arthritis, systemic lupus erythematosus and Sjögren's syndrome were treated with a combination of weekly high doses of Vitamin D (50,000 IU) and daily doses of 400 mg of hydroxychloroquine.

Data set [2] in a line: Side effects of high-dose Vitamin D in the two ITP patients. The data set is classed as in vivo, human. The method, then:
The patient's platelet count was 215,000/mm^3 six weeks after discontinuing prednisone, indicating a regimen of hydroxychloroquine at a dose of 200 mg twice a day and Vitamin D at a dose of 50,000 IU once a week was sufficient to maintain a stable count. The patient remained stable without the administration of prednisone.
In the above examples, an association between vitamin D deficiency and immune thrombocytopenia in two patients is described. Both patients had SLE and/or Sjögren's overlap with positive serology and profound life-threatening thrombocytopenia, all of which were unaffected by conventional therapies. […] After discontinuation of supplemental Vitamin D in one patient (Example 1), the 25-OH Vitamin D normalized, but the platelet count subsequently plummeted. Resuming vitamin D supplementation restored the platelet count to the previous normal range.

Another data set concerns IL-6 and IL-2. The note with it: Muller et al. 1991; cited from earlier work.
In data set [3] the test system is multiple sclerosis in the murine model. Conditions: Cantorna 1996; Pedersen 2007; cited from earlier work.

For `C=C1/C(=C\C=C2/CCC[C@]3(C)[C@@H]([C@H](C)CCCC(C)(C)O)CC[C@@H]23)C[C@@H](O)C[C@@H]1O` [Vitamin D, 1a,25-dihydroxy cholecalciferol], in data set [1], the “response to disease modifying anti-rheumatic drugs” value was “enhanced”. Moreover, the “changes in calcium, phosphate, or creatinine levels” value in data set [2] (Example 1 patient) is “no significant changes”. In data set [2] (both patients), the untoward side effects result is on record as “neither patient experienced any untoward side effect”. Besides, in the data set with IL-6 and IL-2, the “production of interleukin IL-6 and IL-2 in cell cultures” value is “reduced”. Besides, the “development of multiple sclerosis in the murine model” value in data set [3] is “can inhibit the development of multiple sclerosis”.
